Data: patent publication US4963553A, “4-[(substituted) alkylcarbonyl]-4,5-dihydro- and -4,5,6,7-tetrahydro-7-[(substituted)phenyl]pyrazolo[1,5-a]pyrimidines” (American Cyanamid Co., priority 1988, dated 1990)
Counter-ions that a name gives are not always drawn.

What was measured:
[1] = test system: mice (anoxic induced amnesia); assay: Passive Avoidance Anoxic Induced Amnesia Test; type: in vivo, mouse (Swiss-Webster, middle-aged); conditions: intraperitoneal, vs saline control
From the text: A useful in vivo test associated with decreased neural function in mammals is the Passive Avoidance Anoxic Induced Amnesia Test. This test is used to determine the attenuation of anoxic induced amnesia in mice treated with drug, as compared to saline treated control animals with no drug. A shock-motivated, single trial, step-through passive avoidance procedure is used. Groups of 25 Swiss-Webster, middle-aged mice (9 months of age) are placed singly in the front chamber of a 2-chamber box and are allowed to voluntarily cross into the rear chamber. As soon as the mouse enters the rear chamber, a door automatically traps the animal and a mild electric shock (0.4 mA for 4 seconds) is delivered to its feet. Following the foot shock, the mice are initially placed in an anoxic environment (0% oxygen) for 12 seconds, which quickly induces unconsciousness. […] All testing is performed 24 hours later, and in all cases the mice appear fully recovered from the previous anoxic/hypoxic treatment. […] Control animals are injected intraperitoneally only with saline at 0.01 ml/g of body weight. The latent period prior to entering the rear chamber is recorded for both training and testing sessions. The greater the memory of being shocked, the greater the reluctance to enter into the rear chamber and the higher will be the latent period prior to re-entry. […]

[2] = test system: mice (tetrabenazine-induced depression); assay: Tetrabenazine-induced depression (antidepressant); type: in vivo, mouse; set-up: key: Active: A compound is considered active if 3 or more of 10 mice are protected against the tetrabenazine-induced effects; conditions: 25 mg/kg, oral, 10 mice
Protocol: The compounds of the invention are useful as antidepressant agents in warm-blooded animals as verified in the following tests. First, the antidepressant properties of these compounds were tested by measuring their ability to counteract depression induced in animals by the administration of tetrabenazine methanesulfonate. Each test compound was administered orally to 10 mice at a dose of 25 mg/kg of body weight. Thirty minutes later, tetrabenazine methane sulfonate was administered intraperitoneally to each mouse at a dose of 39 mg/kg of body weight, which dose is known to depress markedly the exploratory behavior of normal mice. Thirty minutes later the mice were tested for their exploratory behavior as described by E. Greenblatt and A. C. Osterberg, Toxicology and Applied Pharmacology, 7. 566-578 (1965). A compound is considered active if 3 or more of 10 mice are protected against the tetrabenazine-induced effects.

[3] = test system: Brain-Specific Receptors of Rats (3H-benzodiazepine binding); assay: Inhibition of the binding of 3H-benzodiazepine to brain-specific receptors of rats; set-up: species or system rat (Wistar strain, whole cortex); conditions: rat cortex P2 fraction, 3H-diazepam 1.5 nM or 3H-flunitrazepam 1.0 nM
From the text: Another test utilized for the determination of anxiolytic activity is the measurement of the ability of a test compound to inhibit the binding of tritiated benzodiazepines to brain-specific receptors of mammals. A modification of the method described by R. F. Squires, et al., Nature, 266 (21), 732 (Apr., 1977) and H. Mohler, et al., Science, 198, 849 (1977) was employed. […] The test compounds were solubilized in dimethylformamide, acetic acid, ethanol or hydrochloric acid. […] (1) resuspended in twice the original volume in hypotonic 50 mM Tris.HCl (pH 7.4), or (2) resuspended in one-half the original volume in hypotonic 10 mM Tris.HCl (pH 7.4) and frozen (-20° C.) until time. of use. Frozen P2 preparations were thawed and resuspended in four times the original homogenizing volume at time of assay. […] Incubation for 30 minutes proceeded in ice and was terminated by filtration, under vacuum, through glass fiber filters. The filters were washed twice with 5 ml of ice-cold 50 mM Tris.HCl (pH 7.4) and placed in scintillation vials. After drying at 50°-60° C. for 30 minutes, 10 ml of diluent was added and the radioactivity determined in a scintillation counter. Inhibition of binding was calculated by the difference between total binding and binding in the presence of test compound, divided by the total binding, X 100.

[4] = test system: mice (hypoxic environment); assay: Hypoxic survival test; type: in vivo, mouse (Royal Hart); conditions: intraperitoneal, 10% oxygen, 5 minutes; for % Survivors / responders at 100 mg/kg: 100 mg/kg
Outline: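 Groups of 20 Royal Hart mice (6 weeks old) dosed i.p. with compound in saline at 1–200 mg/kg, 30 minutes before exposure to 10% oxygen/90% carbon dioxide; survival scored after 5 minutes. Saline and physostigmine (0.125 mg/kg i.p.) groups run in parallel.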

[5] = test system: Spontaneously Hypertensive Rats; assay: Hypotensive activity: mean arterial blood pressure in spontaneously hypertensive rats; type: in vivo, rat (Okamoto strain, male); conditions: SHR, gavage, 100 mg/kg or less, two doses 24 h apart, measured at 28 hours; average MABP of rats used 160±1.5 mm; 100 mg/kg
Outline: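 Male 16-week-old Okamoto SHR (baseline MAP 160±1.5 mm Hg) dosed by gavage at ≤100 mg/kg in 2% starch with 25 ml/kg 0.9% NaCl load, redosed at 24 h without saline; mean arterial pressure measured at 28 h after first dose.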

[6] = target: T1, human platelet membranes (3H-imipramine receptor) (Homo sapiens, UniProt P31645); assay: 3H-imipramine binding to human platelet membranes
T1 construct: Fresh human platelet concentrates (less than 48 hours old) were obtained from the New York Blood Center; tissue New York Blood Center; host or cells: human blood platelets, membranes
Protocol: The activity of the compounds of the invention as antidepressant agents was further verified# in the following test which measures the ability of a test compound to inhibit 3H-imipramine binding to human platelet membranes.
Platelet membranes were obtained using the procedure described by Wennogle, L. et al., Pharmac. Biochem. Behav., 15. 975 (1981). Fresh human platelet concentrates (less than 48 hours old) were obtained from the New York Blood Center. These concentrates were prepared in a citrate-dextrose anticoagulant using standard techniques. Platelets were washed twice by centrifugation (2500×G, 10 minutes) in 50 volumes of an antiprotease buffer containing 0.005M Tris potassium chloride, 0.12M sodium chloride, 0.05M Tris pH 7.5, 0.025 Units/ml aprotinin, 0.05 μg/m pepstatin, 2×10^-5 bacitracin, 3 mM ethylenediaminetetraacetic acid and 1.0 mM ethyleneglycol-bis (β-aminoethylether)N,N'-tetra-acetic acid. […] All procedures were conducted at 0° C. using plastic laboratory-ware throughout the platelet membrane preparation. Platelets were resuspended in 20 volumes of buffer and sonicated 3 times using 10 second bursts of a Branson sonifier (cell disrupter 350) at setting 6 (standard 3/4 inch horn), keeping the sample on ice throughout the procedure. Platelet membranes were then washed twice at 18,000×G for 20 minutes with 50 volumes of the antiprotease buffer and resuspended to 3.0 mg. protein/ml using the Bradford protein analysis with bovine gamma globulin as standard. Membranes were used immediately or stored frozen in liquid nitrogen.
The displacement of 3H-imipramine binding to human platelet membranes was performed essentially as described by Paul, S. M., et al., Life Sci., 953 (1980) with the following modifications. Membranes (0.3 mg protein) were suspended in antiprotease buffer with both […] 3H-imipramine (New England Nuclear) and displacing drug or buffer in a total volume of 250 #1 in glass test tubes. Samples were incubated for 90 minutes at 0° C., then diluted to 5 ml in 0.12M sodium chloride, 0.005M potassium chloride, 0.05M Tris pH 7.5 (wash buffer) and immediately filtered through GF/B Whatman Filters and washed twice with 5 ml of wash buffer. Filters were counted in a liquid scintillation counter after addition of Beckman HP Scintillant.
Non-specific binding of 3H-imipramine was defined as that fraction (generally 35%) of radioactivity that was not displaced by 10 μM desmethylimipramine. Specific binding was determined by subtraction of this non-specific level from values for total 3H-imipramine binding which were measured by incubating 3H-imipramine in the absence of displacing drug. Compounds were tested in duplicate test tubes at a concentration of 10 μM. Compounds which inhibited binding by more than 50% were considered to be active.

[7] = Mus musculus, ip, 5 min, read-out: % Survivors

T1 sequence (P31645 whole entry): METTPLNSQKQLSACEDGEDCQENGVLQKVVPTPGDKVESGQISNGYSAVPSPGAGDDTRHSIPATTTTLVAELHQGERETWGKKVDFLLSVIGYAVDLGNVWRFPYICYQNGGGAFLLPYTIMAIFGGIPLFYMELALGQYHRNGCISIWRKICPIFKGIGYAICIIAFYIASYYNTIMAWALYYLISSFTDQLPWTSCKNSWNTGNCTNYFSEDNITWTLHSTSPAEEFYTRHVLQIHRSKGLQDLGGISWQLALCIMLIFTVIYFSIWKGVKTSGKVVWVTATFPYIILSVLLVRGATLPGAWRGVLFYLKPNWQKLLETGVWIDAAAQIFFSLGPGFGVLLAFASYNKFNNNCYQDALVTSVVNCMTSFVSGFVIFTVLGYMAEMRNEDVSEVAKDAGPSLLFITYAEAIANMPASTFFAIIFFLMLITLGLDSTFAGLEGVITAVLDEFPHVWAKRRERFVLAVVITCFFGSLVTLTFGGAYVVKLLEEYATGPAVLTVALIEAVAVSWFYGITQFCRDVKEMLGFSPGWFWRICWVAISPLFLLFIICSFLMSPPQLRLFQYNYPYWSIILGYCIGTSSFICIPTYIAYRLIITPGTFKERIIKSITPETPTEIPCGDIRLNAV

## N#Cc1cnn2c1N(C(=O)CN1CCN(Cc3ccccc3)CC1)CC=C2c1cccc(C(F)(F)F)c1 [Example 17, 4,5-Dihydro-4-[[4-(phenylmethyl)-1-piperazinyl]acetyl]-7-[3-(trifluoromethyl)phenyl]pyrazolo[1,5-a]pyrimidine-3-carbonitrile]
[1]; 100 mg/kg
  % Improvement: 65%
[1]; 200 mg/kg
  % Improvement: 93%
[2]
  Result (protection against tetrabenazine-induced depression): Active
[3]
  % Inhibition (3H-benzodiazepine binding): 17%
[4]
  % Survivors: 48%
[4]; Mus musculus, ip, 5 min, 10 mg/kg, read-out: % Survivors
  responders at 10 mg/kg: 40%
[5]
  MABP/mmHg (mean arterial blood pressure): 120 mmHg

## COc1cccc(CN2CCN(CC(=O)N3CC=C(c4cccc(C(F)(F)F)c4)n4ncc(C#N)c43)CC2)c1 [Example 20, 4,5-Dihydro-4-[[4-[(3-methoxyphenyl)methyl]-1-piperazinyl]acetyl]-7-[3-(trifluoromethyl)phenyl]pyrazolo[1,5-a]pyrimidine-3-carbonitrile]
[2]
  Result (protection against tetrabenazine-induced depression): Active
[6]
  inhibition at 10 µM: 78%

## N#Cc1cnn2c1N(C(=O)CN1CCN(Cc3ccc4c(c3)OCO4)CC1)CC=C2c1cccc(C(F)(F)F)c1 [Example 23, 4-[[4-(1,3-Benzodioxol-5-ylmethyl)-1-piperazinyl]acetyl]-4,5-dihydro-7-[3-(trifluoromethyl)phenyl]pyrazolo[1,5-a]pyrimidine-3-carbonitrile]
[2]
  Result (protection against tetrabenazine-induced depression): Active
[6]
  inhibition at 10 µM: 81%

## COc1cccc(CN2CCN(CC(=O)N3CC=C(c4cccc(C(F)(F)F)c4)n4ncc(C#N)c43)CC2)c1.Cl.Cl [Example 79, 4,5-Dihydro-4-[[4-[(3-methoxyphenyl)methyl]-1-piperazinyl]acetyl]-7-[3-(trifluoromethyl)phenyl]pyrazolo[1,5-a]pyrimidine-3-carbonitrile, dihydrochloride]
[2]
  Result (protection against tetrabenazine-induced depression): Active

## Cl.N#Cc1cnn2c1N(C(=O)CN1CCN(Cc3ccccc3)CC1)CC=C2c1cccc(C(F)(F)F)c1 [Example 94, 4,5-Dihydro-4-[[4-(phenylmethyl)-1-piperazinyl]acetyl]-7-[3-(trifluoromethyl)phenyl]pyrazolo[1,5-a]pyrimidine-3-carbonitrile, hydrochloride]
[1]; 10 mg/kg
  % Improvement: 30%
[4]
  % Survivors: 83%

## N#Cc1cnn2c1N(C(=O)CN1CCN(CC#CCN3CCCC3=O)CC1)CC=C2c1cccc(C(F)(F)F)c1 [Example 109, 4,5-Dihydro-4-[[4-[4-(2-oxo-1-pyrrolidinyl)-2-butynyl]-1-piperazinyl]acetyl]-7-[3-(trifluoromethyl)phenyl]pyrazolo[1.5-a]pyrimidine-3-carbonitrile]
[1]; 1 mg/kg
  % Improvement: 63%
[4]; [7]
  responders at 100 mg/kg: 68%

## CC1=C(c2ccc(Cl)cc2)n2ncc(C#N)c2N(C(=O)CN2CCN(Cc3cccc(Cl)c3)CC2)C1 [Example 133, 7-(4-Chlorophenyl)-4-[[4-[(3-chlorophenyl)methyl]-1-piperazinyl]acetyl]-4,5-dihydro-6-methylpyrazolo[1,5-a]pyrimidine-3-carbonitrile. dihydrochloride]
[1]; 10 mg/kg
  % Improvement: 66%
[4]; [7]
  responders at 100 mg/kg: 62%
[4]; Mus musculus, ip, 5 min, 200 mg/kg, read-out: % Survivors
  responders at 200 mg/kg: 73%

## CC(c1ccccc1)N1CCN(CC(=O)N2CC=C(c3cccc(C(F)(F)F)c3)n3ncc(C#N)c32)CC1 (stereo not shown) [Example 141]
[1]; 25 mg/kg
  % Improvement: 39%
[4]; Mus musculus, ip, 5 min, 25 mg/kg, read-out: % Survivors
  responders at 25 mg/kg: 4%

## N#Cc1cnn2c1N(C(=O)CN1CCN(Cc3cnn(-c4ccccc4)n3)CC1)CC=C2c1cccc(C(F)(F)F)c1 [Example 146]
[1]; 100 mg/kg
  % Improvement: 92%
[4]; [7]
  responders at 100 mg/kg: 52.5%

## N#Cc1cnn2c1N(C(=O)CN1CCN(Cc3ccccc3)CC1)CC=C2c1ccccc1 [Example 147, 4,5-Dihydro-7-phenyl-4-[[4-(phenylmethyl)-1-piperazinyl]acetyl]pyrazolo[1,5-a]pyrimidine-3-carbonitrile]
[1]; 25 mg/kg
  % Improvement: 45%
[4]; [7]
  responders at 100 mg/kg: 50%
